Results from PubChem BioAssay (NCI).
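In this assay, cells in 96-well plates receive the compound at five concentrations for 48 hours. Endpoints are linearly interpolated between the surrounding concentrations. The concentration for full growth arrest is given as TGI.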

Key:
Assay in all cases: inhibition of tumour cell growth, NCI panel, 48 h
[1] = test system: T-47D breast
[2] = test system: A498 renal
[3] = test system: MDA-N
[4] = test system: OVCAR-3 ovarian
[5] = test system: A549 NSCLC
[6] = test system: TK-10 renal
[7] = test system: SNB-19 CNS
[8] = test system: LOX IMVI melanoma
[9] = test system: NCI-H460 lung
[10] = test system: SN12C renal
[11] = test system: MALME-3M melanoma
[12] = test system: OVCAR-4 ovarian
[13] = test system: HCT-116 colon
[14] = test system: COLO 205 colon
[15] = test system: SF-268 CNS
[16] = test system: EKVX NSCLC
[17] = test system: DU-145 prostate
[18] = test system: BT-549 breast
[19] = test system: HS 578T breast
[20] = test system: OVCAR-5 ovarian
[21] = test system: UO-31 renal
[22] = test system: HCT-15 colon
[23] = test system: HOP-62 NSCLC
[24] = test system: HCC-2998 colon
[25] = test system: M14 melanoma
[26] = test system: MCF7 breast
[27] = test system: SK-MEL-2 melanoma
[28] = test system: ACHN renal
[29] = test system: CAKI-1 renal
[30] = test system: OVCAR-8 ovarian
[31] = test system: MDA-MB-231 breast
[32] = test system: SK-MEL-28 melanoma
[33] = test system: U251 CNS
[34] = test system: HOP-92 NSCLC
[35] = test system: SK-OV-3 ovarian
[36] = test system: MOLT-4 leukemia
[37] = test system: K-562 leukemia
[38] = test system: IGROV1 ovarian
[39] = test system: RPMI-8226 leukemia
[40] = test system: NCI/ADR-RES ovarian
[41] = test system: UACC-257 melanoma
[42] = test system: NCI-H23 lung
[43] = test system: SW-620 colon
[44] = test system: RXF 393 renal
[45] = test system: NCI-H226 lung
[46] = test system: UACC-62 melanoma
[47] = test system: SNB-75 CNS
[48] = test system: MDA-MB-435
[49] = test system: SF-295 CNS
[50] = test system: 786-0 renal
[51] = test system: KM12 colon
[52] = test system: PC-3 prostate
[53] = test system: SR leukemia
[54] = test system: SF-539 CNS
[55] = test system: SK-MEL-5 melanoma
[56] = test system: HT29 colon
[57] = test system: CCRF-CEM leukemia
[58] = test system: HL-60(TB) leukemia
[59] = test system: NCI-H522 lung

CCCN(CCCc1ccccc1)CCc1ccc2[nH]c(=S)[nH]c2c1
TGI [1]: 43.2 µM | TGI [2]: > 100 µM | TGI [3]: 41.7 µM | TGI [4]: > 100 µM | TGI [5]: > 100 µM | TGI [6]: > 100 µM | TGI [7]: 91.7 µM | TGI [8]: > 100 µM | TGI [9]: 26.1 µM | TGI [10]: > 100 µM | TGI [11]: 25.5 µM | TGI [12]: > 100 µM | TGI [13]: > 100 µM | TGI [14]: 42.6 µM | TGI [15]: > 100 µM | TGI [16]: > 100 µM | TGI [17]: > 100 µM | TGI [18]: > 100 µM | TGI [19]: > 100 µM | TGI [20]: > 100 µM | TGI [21]: 51.4 µM | TGI [22]: > 100 µM | TGI [23]: > 100 µM | TGI [24]: 26 µM | TGI [25]: 40 µM | TGI [26]: > 100 µM | TGI [27]: 38.4 µM | TGI [28]: > 100 µM | TGI [29]: > 100 µM | TGI [30]: > 100 µM | TGI [31]: > 100 µM | TGI [32]: 51.5 µM | TGI [33]: > 100 µM | TGI [34]: 42.6 µM | TGI [35]: > 100 µM | TGI [36]: 54 µM | TGI [37]: 29.3 µM | TGI [38]: 79.9 µM | TGI [39]: 39.9 µM | TGI [40]: > 100 µM | TGI [41]: 44.3 µM | TGI [42]: > 100 µM | TGI [43]: > 100 µM | TGI [44]: 76.1 µM | TGI [45]: > 100 µM | TGI [46]: 74.4 µM | TGI [47]: 68.3 µM | TGI [48]: 41.8 µM | TGI [49]: 26 µM | TGI [50]: 25.4 µM | TGI [51]: > 100 µM | TGI [52]: > 100 µM | TGI [53]: 25.1 µM

Clc1cc2c(cc1Cl)CC(NCCN1CCCC1)CC2 (stereo not drawn)
TGI [1]: 25.5 µM | TGI [2]: 27.4 µM | TGI [3]: 14.3 µM | TGI [4]: 32 µM | TGI [5]: 29.4 µM | TGI [6]: 27.6 µM | TGI [7]: 46.3 µM | TGI [8]: 27.2 µM | TGI [9]: 31.2 µM | TGI [54]: 28 µM | TGI [10]: 31.4 µM | TGI [11]: 22.8 µM | TGI [12]: 35.9 µM | TGI [13]: 26.3 µM | TGI [14]: 10.7 µM | TGI [15]: 29.7 µM | TGI [16]: 38.7 µM | TGI [17]: 27.8 µM | TGI [55]: 14.7 µM | TGI [18]: 28.8 µM | TGI [19]: 42.4 µM | TGI [20]: 29.6 µM | TGI [21]: 23.6 µM | TGI [56]: 18.1 µM | TGI [22]: 26.5 µM | TGI [23]: 30.7 µM | TGI [24]: 8.02 µM | TGI [25]: 25.4 µM | TGI [57]: > 100 µM | TGI [26]: 31 µM | TGI [27]: 34.9 µM | TGI [28]: 31.8 µM | TGI [29]: 30.2 µM | TGI [30]: 31.1 µM | TGI [31]: 30.3 µM | TGI [32]: 29.9 µM | TGI [33]: 31.1 µM | TGI [35]: 34.9 µM | TGI [36]: 60 µM | TGI [37]: 48.9 µM | TGI [38]: 29 µM | TGI [39]: 38.1 µM | TGI [40]: 27.8 µM | TGI [41]: 21.3 µM | TGI [42]: 30.9 µM | TGI [43]: 45.7 µM | TGI [45]: 32.1 µM | TGI [46]: 8.15 µM | TGI [48]: 14.4 µM | TGI [49]: 29.8 µM | TGI [50]: 26.3 µM | TGI [51]: 32.3 µM | TGI [58]: 37.6 µM | TGI [59]: 32.4 µM | TGI [52]: 30.3 µM | TGI [53]: 38 µM

CC(C)OCC1CC(CC(=O)Nc2nncs2)C(=O)O1 (stereo not drawn)
TGI [1]: > 100 µM | TGI [3]: > 100 µM | TGI [4]: > 100 µM | TGI [5]: > 100 µM | TGI [6]: > 100 µM | TGI [7]: > 100 µM | TGI [8]: > 100 µM | TGI [9]: > 100 µM | TGI [54]: > 100 µM | TGI [10]: > 100 µM | TGI [12]: > 100 µM | TGI [13]: > 100 µM | TGI [14]: > 100 µM | TGI [15]: > 100 µM | TGI [16]: > 100 µM | TGI [17]: > 100 µM | TGI [55]: > 100 µM | TGI [18]: > 100 µM | TGI [19]: > 100 µM | TGI [20]: > 100 µM | TGI [21]: > 100 µM | TGI [56]: > 100 µM | TGI [22]: > 100 µM | TGI [23]: > 100 µM | TGI [24]: > 100 µM | TGI [25]: > 100 µM | TGI [57]: > 100 µM | TGI [26]: > 100 µM | TGI [27]: > 100 µM | TGI [28]: > 100 µM | TGI [29]: > 100 µM | TGI [30]: > 100 µM | TGI [31]: > 100 µM | TGI [32]: > 100 µM | TGI [33]: > 100 µM | TGI [34]: > 100 µM | TGI [35]: > 100 µM | TGI [36]: > 100 µM | TGI [37]: > 100 µM | TGI [38]: > 100 µM | TGI [39]: > 100 µM | TGI [40]: > 100 µM | TGI [41]: > 100 µM | TGI [42]: > 100 µM | TGI [43]: > 100 µM | TGI [45]: > 100 µM | TGI [46]: > 100 µM | TGI [47]: > 100 µM | TGI [48]: > 100 µM | TGI [49]: > 100 µM | TGI [50]: > 100 µM | TGI [51]: > 100 µM | TGI [52]: > 100 µM | TGI [53]: > 100 µM

Fc1ccc(C(OCCN2CCC3CCC(C2)N3C/C=C/c2ccco2)c2ccc(F)cc2)cc1 (stereo not drawn)
TGI [1]: 20.8 µM | TGI [2]: 23.3 µM | TGI [3]: 25.9 µM | TGI [4]: 27.5 µM | TGI [5]: 29.5 µM | TGI [6]: 21.5 µM | TGI [7]: 32.8 µM | TGI [8]: 24.2 µM | TGI [9]: 24.5 µM | TGI [54]: 28.4 µM | TGI [10]: 24.8 µM | TGI [11]: 21.7 µM | TGI [12]: 25.2 µM | TGI [13]: 18.5 µM | TGI [14]: 13.3 µM | TGI [15]: 25.9 µM | TGI [17]: 34.6 µM | TGI [55]: 14.4 µM | TGI [18]: 25.7 µM | TGI [19]: 34.3 µM | TGI [21]: 28.8 µM | TGI [22]: 18.6 µM | TGI [23]: 36.5 µM | TGI [24]: 18.4 µM | TGI [25]: 18.8 µM | TGI [57]: 0.419 µM | TGI [26]: 22.7 µM | TGI [27]: 26.2 µM | TGI [28]: 25.3 µM | TGI [29]: 27.9 µM | TGI [30]: 19.6 µM | TGI [31]: 23.6 µM | TGI [32]: 19.5 µM | TGI [33]: 21.1 µM | TGI [34]: 19.1 µM | TGI [35]: 30.3 µM | TGI [36]: 20.4 µM | TGI [37]: 20.7 µM | TGI [38]: 21 µM | TGI [39]: 17.3 µM | TGI [40]: 22.4 µM | TGI [41]: 17.4 µM | TGI [42]: 24 µM | TGI [43]: 21.6 µM | TGI [44]: 15.7 µM | TGI [45]: 28.8 µM | TGI [46]: 26.7 µM | TGI [47]: 30 µM | TGI [48]: 26.5 µM | TGI [49]: 27.7 µM | TGI [50]: 22.2 µM | TGI [51]: 30.6 µM | TGI [59]: 20.5 µM | TGI [52]: 20.6 µM | TGI [53]: 42.7 µM
